# Values of other authors in patent US9150582B2, “Composition and method for neuropeptide S receptor (NPSR) antagonists” (RESEARCH TRIANGLE INSTITUTE, priority 2011, dated 2015).
# “Also recorded” adds a separate entry of the source.
# Assays:
# [1] = test system: mice; conditions: elevated plus maze, light dark box, marble burying
# [2] = test system: basolateral amygdala (BLA); conditions: 0.1 nM injected into BLA
# [3] = test system: mice; conditions: i.c.v., habituated and naive mice
# [4] = test system: mice; conditions: i.c.v.
# [5] = test system: mice
# [6] = target: T1, NPSR Ile^107 variant (Homo sapiens, UniProt Q6W5P4, N107I); conditions: calcium flux
# T1 sequence (Q6W5P4 1-371 N107I): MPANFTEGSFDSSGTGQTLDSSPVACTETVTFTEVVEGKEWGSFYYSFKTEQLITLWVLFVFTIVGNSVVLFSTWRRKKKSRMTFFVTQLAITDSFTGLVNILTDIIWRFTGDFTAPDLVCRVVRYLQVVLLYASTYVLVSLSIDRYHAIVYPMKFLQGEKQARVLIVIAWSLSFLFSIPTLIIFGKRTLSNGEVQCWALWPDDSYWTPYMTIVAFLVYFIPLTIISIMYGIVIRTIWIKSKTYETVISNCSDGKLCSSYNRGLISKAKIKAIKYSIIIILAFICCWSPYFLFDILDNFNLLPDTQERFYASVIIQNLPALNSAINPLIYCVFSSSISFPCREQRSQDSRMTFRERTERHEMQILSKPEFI
# [7] = i.c.v.
# [8] = test system: mice; conditions: 0.1 nMol NPS
# [9] = target: T2, NPSR-C0Alt (Homo sapiens, UniProt Q6W5P4); conditions: functional assay
# T2 sequence (Q6W5P4 1-377 isoform Q6W5P4-4): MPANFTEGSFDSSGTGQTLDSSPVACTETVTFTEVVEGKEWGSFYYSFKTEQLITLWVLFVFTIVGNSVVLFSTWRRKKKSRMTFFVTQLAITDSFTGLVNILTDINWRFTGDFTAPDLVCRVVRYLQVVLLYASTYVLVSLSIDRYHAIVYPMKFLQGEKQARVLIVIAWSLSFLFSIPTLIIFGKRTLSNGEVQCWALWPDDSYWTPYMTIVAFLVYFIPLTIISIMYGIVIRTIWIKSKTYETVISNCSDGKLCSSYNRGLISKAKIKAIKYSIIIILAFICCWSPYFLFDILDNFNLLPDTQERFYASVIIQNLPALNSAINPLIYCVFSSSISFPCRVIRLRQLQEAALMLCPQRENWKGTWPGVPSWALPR
substance,measurement,setting,value
"NPS: Human Neuropeptide S, 20 residue peptide SFRNGVGTGMKKTSFQRAKS (SEQ ID NO: 1), agonist of NPSR (Human)",anxiolytic-like behaviors,[1],anxiolytic-like behaviors
same,anxiolytic activity at low dose,[2],No anxiolytic activity was observed
same,contextual fear memories,[2],significantly reduced contextual fear memories
same,locomotor activity,[3],increased locomotor activity; also recorded: increase in locomotor activity
same,formerly extinguished cocaine seeking behaviors,[4],dose-dependently increased
same,"fear response (freezing behavior), administration pre-testing",[5]; NPS given pre-testing,decreased the fear response
same,"fear response, administration pre-training",[5]; NPS given pre-training,no effect on fear response
same,"enhancement in functional sensitivity, Ile107 variant over Asn107",[6],five to ten fold enhancement
same,performance in novel recognition assays,[7],dose-dependently improves performance
same,amount of stage 1 and 2 slow wave sleep and REM sleep,[8]; compared to saline,significantly reduced
same,first hour of wakefulness,"[8]; mice, saline 45%",69%
same,"potency at NPSR-C0Alt, lower versus the 107I variant",[9],30 fold
